{
  "source": "ChEMBL document CHEMBL1201862",
  "about": "“PubChem BioAssay data set” (2004)",
  "key": {"[1]": {"target": "T1, Short transient receptor potential channel 4 (Mus musculus, UniProt Q9QUQ5)", "T1 sequence (Q9QUQ5 whole entry)": "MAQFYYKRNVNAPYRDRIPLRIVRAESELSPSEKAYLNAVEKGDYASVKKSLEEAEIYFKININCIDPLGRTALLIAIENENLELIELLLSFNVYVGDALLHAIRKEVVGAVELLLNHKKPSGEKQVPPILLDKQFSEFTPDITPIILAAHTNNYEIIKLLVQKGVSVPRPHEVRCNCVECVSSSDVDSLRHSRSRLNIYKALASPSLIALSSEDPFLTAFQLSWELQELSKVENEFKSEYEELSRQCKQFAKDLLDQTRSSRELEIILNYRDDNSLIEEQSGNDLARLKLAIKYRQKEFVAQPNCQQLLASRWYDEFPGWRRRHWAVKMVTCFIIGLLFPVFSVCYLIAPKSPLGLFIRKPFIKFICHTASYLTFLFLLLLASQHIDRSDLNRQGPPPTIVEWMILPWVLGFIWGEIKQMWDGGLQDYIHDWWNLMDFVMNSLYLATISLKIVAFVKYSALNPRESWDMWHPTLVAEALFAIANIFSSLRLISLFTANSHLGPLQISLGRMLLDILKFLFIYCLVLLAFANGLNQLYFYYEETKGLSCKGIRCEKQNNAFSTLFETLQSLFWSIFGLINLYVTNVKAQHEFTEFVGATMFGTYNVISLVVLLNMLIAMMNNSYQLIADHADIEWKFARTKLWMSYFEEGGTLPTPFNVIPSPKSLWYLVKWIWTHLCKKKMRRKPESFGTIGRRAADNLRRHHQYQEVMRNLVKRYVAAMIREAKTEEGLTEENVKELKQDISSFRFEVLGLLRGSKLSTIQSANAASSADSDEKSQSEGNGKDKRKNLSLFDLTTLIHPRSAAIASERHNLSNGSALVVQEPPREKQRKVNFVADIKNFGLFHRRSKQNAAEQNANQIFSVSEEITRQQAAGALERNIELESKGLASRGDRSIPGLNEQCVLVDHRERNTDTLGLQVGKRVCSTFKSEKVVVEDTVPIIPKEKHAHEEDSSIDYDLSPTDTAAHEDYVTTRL", "test": "calcium entry via TRPC4 opening agents – cell-based, HEK293 TRPC4/mu-opioid, Fluo-4 calcium, dose response (AID 434937)", "format": "functional"}, "[2]": {"target": "Delta-type opioid receptor (Homo sapiens, UniProt P41143)", "sequence (P41143 whole entry)": "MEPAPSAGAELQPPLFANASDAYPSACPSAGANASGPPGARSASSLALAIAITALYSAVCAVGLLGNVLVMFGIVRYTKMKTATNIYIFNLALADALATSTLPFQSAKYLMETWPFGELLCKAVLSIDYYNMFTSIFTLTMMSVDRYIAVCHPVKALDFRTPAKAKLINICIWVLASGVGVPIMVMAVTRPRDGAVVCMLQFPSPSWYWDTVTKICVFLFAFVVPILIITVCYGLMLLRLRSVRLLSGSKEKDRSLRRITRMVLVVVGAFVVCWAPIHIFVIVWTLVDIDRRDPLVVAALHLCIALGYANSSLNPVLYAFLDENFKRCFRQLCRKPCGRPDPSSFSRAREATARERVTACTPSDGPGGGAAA", "test": "Counterscreen for agonists of heterodimerization of the mu 1 (OPRM1) and delta 1 (OPRD1) opioid receptors: Luminescence-based cell-based high throughput dose response assay to identify agonists of OPRD1 homodimerization. [Related pubchem assays (depositor defined):AID504326, AID504355, AID504692, AID504904, AID504905]", "format": "functional"}, "Mu-type opioid receptor": {"target": "Mu-type opioid receptor (Homo sapiens, UniProt P35372)", "sequence (P35372 whole entry)": "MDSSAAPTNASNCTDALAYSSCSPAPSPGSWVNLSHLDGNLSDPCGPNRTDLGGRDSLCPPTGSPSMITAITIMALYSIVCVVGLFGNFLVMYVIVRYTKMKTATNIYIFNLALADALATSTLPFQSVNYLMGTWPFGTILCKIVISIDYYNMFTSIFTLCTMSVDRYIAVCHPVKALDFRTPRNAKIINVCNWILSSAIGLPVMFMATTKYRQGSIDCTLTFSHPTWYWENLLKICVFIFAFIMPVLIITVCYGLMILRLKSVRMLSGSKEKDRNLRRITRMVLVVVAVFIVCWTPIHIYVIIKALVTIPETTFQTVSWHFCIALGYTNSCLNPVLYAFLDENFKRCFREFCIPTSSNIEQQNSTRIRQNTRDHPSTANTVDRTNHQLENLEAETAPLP", "test": "Counterscreen for agonists of heterodimerization of the mu 1 (OPRM1) and delta 1 (OPRD1) opioid receptors: Luminescence-based cell-based high throughput dose response assay to identify agonists of OPRM1 homodimerization.", "format": "functional"}, "[3]": {"target": "5-hydroxytryptamine receptor 5A (Homo sapiens, UniProt P47898)", "sequence (P47898 whole entry)": "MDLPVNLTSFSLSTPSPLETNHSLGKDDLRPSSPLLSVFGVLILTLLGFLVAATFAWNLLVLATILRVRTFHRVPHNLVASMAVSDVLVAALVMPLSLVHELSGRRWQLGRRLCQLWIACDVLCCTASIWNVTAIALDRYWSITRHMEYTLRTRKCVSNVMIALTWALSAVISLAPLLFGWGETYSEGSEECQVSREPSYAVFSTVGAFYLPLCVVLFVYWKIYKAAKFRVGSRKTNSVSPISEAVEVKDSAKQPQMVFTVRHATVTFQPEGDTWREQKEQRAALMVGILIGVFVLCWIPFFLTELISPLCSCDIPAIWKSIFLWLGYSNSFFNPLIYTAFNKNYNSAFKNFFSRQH", "test": "Counterscreen for agonists of OPRM1-OPRD1 heterodimerization: luminescence-based cell-based high throughput dose response assay to identify agonists of 5-hydroxytryptamine (serotonin) 5A receptor (HTR5A). [Related pubchem assays (depositor defined):AID504326, AID504355, AID504692, AID504904, AID504905]", "format": "functional"}, "Trypsin": {"target": "Trypsin (Sus scrofa, UniProt P00761)", "sequence (P00761 whole entry)": "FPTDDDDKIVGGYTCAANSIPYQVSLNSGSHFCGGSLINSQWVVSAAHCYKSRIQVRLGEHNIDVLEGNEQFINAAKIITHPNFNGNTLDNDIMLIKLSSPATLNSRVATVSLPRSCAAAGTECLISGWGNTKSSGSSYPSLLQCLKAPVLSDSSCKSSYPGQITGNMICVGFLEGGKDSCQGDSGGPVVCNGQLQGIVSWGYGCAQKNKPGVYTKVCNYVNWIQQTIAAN", "test": "trypsin protease activity blockade – biochemical, quenched peptide fluorescence, cherry-pick, selectivity assay for Rce1 protease inhibitor project, dose response (AID 488789)"}, "CAAX prenyl protease 2 [4]": {"target": "T2, CAAX prenyl protease 2 (Saccharomyces cerevisiae S288c, UniProt Q03530)", "T2 sequence (Q03530 whole entry)": "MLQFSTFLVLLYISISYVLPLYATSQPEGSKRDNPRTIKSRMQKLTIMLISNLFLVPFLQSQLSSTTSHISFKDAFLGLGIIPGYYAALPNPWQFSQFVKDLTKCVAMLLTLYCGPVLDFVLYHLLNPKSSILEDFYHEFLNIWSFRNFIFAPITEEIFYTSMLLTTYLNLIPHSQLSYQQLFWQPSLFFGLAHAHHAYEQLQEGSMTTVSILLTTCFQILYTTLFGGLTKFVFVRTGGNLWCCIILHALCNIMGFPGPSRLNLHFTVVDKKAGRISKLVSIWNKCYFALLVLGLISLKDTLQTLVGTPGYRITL", "format": "biochemical"}, "CAAX prenyl protease 1": {"target": "CAAX prenyl protease 1 (Saccharomyces cerevisiae S288c, UniProt P47154)", "sequence (P47154 whole entry)": "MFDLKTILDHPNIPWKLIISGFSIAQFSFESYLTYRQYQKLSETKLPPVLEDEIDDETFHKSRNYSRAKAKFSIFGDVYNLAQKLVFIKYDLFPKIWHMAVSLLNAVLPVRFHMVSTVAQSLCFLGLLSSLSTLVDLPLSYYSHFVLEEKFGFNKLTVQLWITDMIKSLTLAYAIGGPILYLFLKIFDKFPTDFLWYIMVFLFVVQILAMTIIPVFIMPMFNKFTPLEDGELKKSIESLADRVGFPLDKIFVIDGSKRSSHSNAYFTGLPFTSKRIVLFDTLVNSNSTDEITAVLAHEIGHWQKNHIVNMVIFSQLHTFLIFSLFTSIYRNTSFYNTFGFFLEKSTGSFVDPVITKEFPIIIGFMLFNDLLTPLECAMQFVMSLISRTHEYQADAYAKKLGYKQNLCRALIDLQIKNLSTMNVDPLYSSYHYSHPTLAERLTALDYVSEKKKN", "test": "yeast CAAX protease Ste24 inhibition – biochemical, S. cerevisiae, plate reader, cherry-pick, dose response (AID 488815)"}, "[5]": {"target": "T3, Endoribonuclease toxin MazF (Escherichia coli K-12, UniProt P0AE70)", "T3 sequence (P0AE70 whole entry)": "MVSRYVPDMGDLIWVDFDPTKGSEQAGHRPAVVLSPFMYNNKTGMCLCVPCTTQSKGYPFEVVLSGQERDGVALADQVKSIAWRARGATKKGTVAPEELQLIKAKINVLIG", "test": "activation of MazEF endoribonuclease cleavage – biochemical, fluorescence, single-stranded RNA substrate, uHTS hits, dose response (AID 588481)", "format": "functional"}, "[6]": {"target": "T3, Endoribonuclease toxin MazF", "test": "substrate-only fluorescence increase artefacts – biochemical, single-stranded RNase substrate, counter-screen for MazEF activator project, dose response (AID 588502)", "format": "functional"}, "Melanocortin receptor 4": {"target": "Melanocortin receptor 4 (Homo sapiens, UniProt P32245)", "sequence (P32245 whole entry)": "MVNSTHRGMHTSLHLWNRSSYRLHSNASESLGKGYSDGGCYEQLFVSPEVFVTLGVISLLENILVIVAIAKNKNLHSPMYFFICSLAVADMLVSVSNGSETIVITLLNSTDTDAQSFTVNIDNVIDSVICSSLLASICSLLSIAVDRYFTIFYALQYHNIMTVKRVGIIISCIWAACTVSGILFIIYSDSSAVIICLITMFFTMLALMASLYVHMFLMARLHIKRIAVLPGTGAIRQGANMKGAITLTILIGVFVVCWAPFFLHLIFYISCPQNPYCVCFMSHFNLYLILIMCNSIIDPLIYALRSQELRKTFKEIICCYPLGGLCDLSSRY", "format": "functional, cell-based"}, "CAAX prenyl protease 2 [7]": {"target": "CAAX prenyl protease 2 (Homo sapiens, UniProt Q9Y256)", "sequence (Q9Y256 whole entry)": "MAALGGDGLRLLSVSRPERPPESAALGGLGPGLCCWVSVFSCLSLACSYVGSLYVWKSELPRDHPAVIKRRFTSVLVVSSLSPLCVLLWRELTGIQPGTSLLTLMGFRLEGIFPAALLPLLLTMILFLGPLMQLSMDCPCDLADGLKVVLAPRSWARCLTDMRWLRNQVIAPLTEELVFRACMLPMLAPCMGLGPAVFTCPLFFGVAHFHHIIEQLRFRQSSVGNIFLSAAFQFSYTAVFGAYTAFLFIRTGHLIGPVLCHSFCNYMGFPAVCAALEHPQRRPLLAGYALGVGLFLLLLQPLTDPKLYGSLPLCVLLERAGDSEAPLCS", "test": "inhibition of Ras-converting CAAX protease Rce1 – biochemical, yeast membranes, quenched-peptide fluorescence, cherry-pick, dose response (AID 588849)"}, "Nonstructural protein 1": {"target": "Nonstructural protein 1 (Influenza A virus, UniProt Q194T2)", "sequence (Q194T2 whole entry)": "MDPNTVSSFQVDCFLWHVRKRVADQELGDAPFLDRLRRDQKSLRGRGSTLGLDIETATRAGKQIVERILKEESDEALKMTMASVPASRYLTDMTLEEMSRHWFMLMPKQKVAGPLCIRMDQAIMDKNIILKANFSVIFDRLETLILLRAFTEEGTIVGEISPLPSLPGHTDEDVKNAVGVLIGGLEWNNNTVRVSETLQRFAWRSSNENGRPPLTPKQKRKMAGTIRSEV", "format": "functional, Influenza A virus (A/California/07/2009(H1N1))"}, "Vero": {"test_system": "Vero", "test": "Vero E6 cell cytotoxicity, dose response, cytotoxicity control (AID 540298)", "format": "functional", "settings": "Chlorocebus sabaeus"}, "MDCK [8]": {"test_system": "MDCK", "test": "MDCK cell cytotoxicity, dose response, cytotoxicity control (AID 540296)", "format": "functional", "settings": "Canis lupus familiaris"}, "MDCK [9]": {"test_system": "MDCK", "test": "antiviral activity against H1N1 influenza, dose response, cell-based, strain KY136 (AID 540257)", "format": "functional", "settings": "Canis lupus familiaris"}, "[10]": {"test": "Trypanosoma cruzi growth suppression in host cells – NIH3T3 host cells, beta-gal luminescence, confirmation (AID 2044);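 also: luminescent beta-galactosidase reporter signal from transgenic T. cruzi replicating inside host cells; inhibitors lower the luminescence signal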", "format": "functional, cell-based"}, "[11]": {"test": "NIH3T3 cell viability loss – ATP luminescence, mouse fibroblasts, counter-screen, dose response (AID 2010);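 also: cells exposed to compound for about 90 hours before reading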", "format": "functional, cell-based"}, "HEK293 [12]": {"test_system": "HEK293", "test": "cells", "settings": "Homo sapiens"}, "HEK293 [13]": {"test_system": "HEK293", "test": "cells", "settings": "Homo sapiens", "remark": "listed apart in the source"}, "A-375 [14]": {"test_system": "A-375", "test": "MITF: Counter assay: A375 proliferation Measured in Cell-Based System Using Plate Reader - 2084-03_Inhibitor_Dose_DryPowder_Activity. [Related pubchem assays (depositor defined):AID488944]", "format": "functional", "settings": "Homo sapiens"}, "A-375 [15]": {"test_system": "A-375", "test": "proliferation inhibition in MITF-low A375 cells – cell-based, cherry-pick samples, set 2, counter-screen for MITF modulator project, dose response (AID 540335)", "format": "functional", "settings": "Homo sapiens"}, "[16]": {"test": "Luminescence-based dose response cell-based high throughput screening assay for cytotoxic compounds using the IEC-6 intestinal epithelial cell line. [Related pubchem assays: 1858 (Summary AID.), 1825 (Counterscreen.), 1907 (Confirmation screen.)]", "format": "functional"}, "[17]": {"test": "THP-1 cell cytotoxicity, dose response, cytotoxicity control for non-replicating M. tuberculosis project (AID 489025)", "format": "functional"}, "[18]": {"test": "HepG2 cell cytotoxicity, dose response, cytotoxicity control for non-replicating M. tuberculosis project (AID 489018)", "format": "functional", "settings": "Mycobacterium tuberculosis"}, "[19]": {"test": "Vero E6 cell cytotoxicity, dose response, cytotoxicity control for non-replicating M. tuberculosis project, secondary assay (AID 492998)", "format": "functional, VeroE6", "settings": "Vero C1008"}, "cells": {"test": "cells", "format": "functional"}, "Paired box protein Pax-8": {"target": "Paired box protein Pax-8 (Homo sapiens, UniProt Q06710)", "sequence (Q06710 whole entry)": "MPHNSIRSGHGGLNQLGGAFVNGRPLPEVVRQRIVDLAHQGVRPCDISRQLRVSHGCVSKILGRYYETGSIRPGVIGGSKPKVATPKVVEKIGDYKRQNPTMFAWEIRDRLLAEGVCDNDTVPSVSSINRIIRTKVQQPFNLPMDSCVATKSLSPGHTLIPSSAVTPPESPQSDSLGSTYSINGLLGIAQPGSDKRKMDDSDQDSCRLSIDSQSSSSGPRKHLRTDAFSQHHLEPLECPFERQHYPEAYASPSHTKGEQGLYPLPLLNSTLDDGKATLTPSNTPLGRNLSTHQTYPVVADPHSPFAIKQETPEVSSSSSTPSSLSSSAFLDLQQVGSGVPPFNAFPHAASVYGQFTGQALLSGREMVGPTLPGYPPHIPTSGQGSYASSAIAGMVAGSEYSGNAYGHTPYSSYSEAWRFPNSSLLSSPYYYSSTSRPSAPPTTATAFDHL", "test": "PAX8 transcriptional activity inhibition in RMG-I – RMG-I cells, luciferase, cherry-pick, dose response (AID 687027);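 also: luciferase reporter driven by Pax8 target thyroperoxidase promoter measured by SteadyGlo luminescence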", "format": "functional, cell-based"}, "Escherichia coli [20]": {"test_system": "Escherichia coli", "test": "microbe, parasite or virus in culture"}, "Escherichia coli [21]": {"test_system": "Escherichia coli", "test": "microbe, parasite or virus in culture", "remark": "listed apart in the source"}},
  "note": "Activity calls are given as the source filed them.",
  "data": [
    {"smiles": "Cc1ccc(Cl)cc1NC(=O)CNCC(c1ccccc1)N(C)C", "note": "(configuration not stated)", "values": [
      {"measurement": "EC50", "setting": "[1]", "result": "0.376 µM (active)"},
      {"measurement": "EC50", "setting": "[2]", "result": "> 92.5 µM (inactive)"},
      {"measurement": "EC50", "setting": "Mu-type opioid receptor", "result": "> 92.5 µM (inactive)"},
      {"measurement": "EC50", "setting": "[3]", "result": "> 92.5 µM (inactive)"}
    ]},
    {"smiles": "Cc1nc(NC(=O)c2cccc(-c3cc4ccccc4oc3=O)c2)ccc1Br", "values": [
      {"measurement": "AC50", "setting": "Trypsin", "result": "16.6 µM (active)"},
      {"measurement": "AC50", "setting": "CAAX prenyl protease 2 [4]", "result": "> 100 µM (inactive)"},
      {"measurement": "AC50", "setting": "CAAX prenyl protease 1", "result": "11.9 µM (active)"},
      {"measurement": "EC50", "setting": "[5]", "result": "> 99 µM (inactive)"},
      {"measurement": "EC50", "setting": "[6]", "result": "> 99 µM (inactive)"},
      {"measurement": "EC50", "setting": "Melanocortin receptor 4", "result": "> 89.2 µM (inactive)"}
    ]},
    {"smiles": "CCc1cc(=O)oc2cc(OCC(=O)N3CCC(C(=O)O)CC3)ccc12", "values": [
      {"measurement": "AC50", "setting": "CAAX prenyl protease 2 [4]", "result": "31.9 µM (active)"},
      {"measurement": "AC50", "setting": "CAAX prenyl protease 2 [7]", "result": "14.3 µM (active)"}
    ]},
    {"smiles": "CCc1ccccc1NC(=O)CSc1nc2nnc(C)c-2c(N)n1-c1cccc(OC)c1", "values": [
      {"measurement": "IC50", "setting": "Nonstructural protein 1", "result": "> 100 µM (active)"},
      {"measurement": "CC50", "setting": "Vero", "result": "24.4 µM (active)"},
      {"measurement": "CC50", "setting": "MDCK [8]", "result": "35.7 µM (active)"},
      {"measurement": "IC50", "setting": "MDCK [9]", "result": "7.75 µM (active)"}
    ]},
    {"smiles": "Cc1cc(C)nc(SC2c3cccc4cccc(c34)C2NS(=O)(=O)c2ccccc2)n1", "note": "(configuration not stated)", "values": [
      {"measurement": "EC50", "setting": "[10]", "result": "1.87 µM (active)"},
      {"measurement": "EC50", "setting": "[11]", "result": "12.8 µM (active)"},
      {"measurement": "EC50", "setting": "HEK293 [12]", "result": "> 59.6 µM (inactive)"},
      {"measurement": "EC50", "setting": "HEK293 [13]", "result": "> 59.6 µM (inactive)"}
    ]},
    {"smiles": "Cc1csc(NC(=O)Cc2c(F)cccc2Cl)n1", "values": [
      {"measurement": "AC50", "setting": "A-375 [14]", "result": "> 35 µM (active)"},
      {"measurement": "AC50", "setting": "A-375 [15]", "result": "> 35 µM (active)"}
    ]},
    {"smiles": "CN1CCc2c(sc(NC(=O)c3ccc([N+](=O)[O-])o3)c2C(N)=O)C1", "values": [
      {"measurement": "EC50", "setting": "[10]", "result": "1.26 µM (active)"},
      {"measurement": "IC50", "setting": "[16]", "result": "0.879 µM (active)"},
      {"measurement": "EC50", "setting": "[11]", "result": "3.92 µM (active)"},
      {"measurement": "CC50", "setting": "[17]", "result": "1.21 µM (active)"},
      {"measurement": "CC50", "setting": "[18]", "result": "2.55 µM (active)"},
      {"measurement": "CC50", "setting": "[19]", "result": "0.54 µM (active)"},
      {"measurement": "IC50", "setting": "cells", "result": "17.6 µM (active)"},
      {"measurement": "AC50", "setting": "Paired box protein Pax-8", "result": "1.67 µM (active)"},
      {"measurement": "AC50", "setting": "Escherichia coli [20]", "result": "23.2 µM (active)"},
      {"measurement": "AC50", "setting": "Escherichia coli [21]", "result": "26.4 µM (active)"}
    ]}
  ]
}
